Assay results published in ChEMBL document CHEMBL1130317 (J Med Chem, 1997).

What was measured:
[1] = target: T1, Aldo-keto reductase family 1 member A1 (Rattus norvegicus, UniProt P51635); assay: In vitro inhibitory activity against rat kidney aldehyde reductase(ALR).
T1 sequence (P51635 whole entry): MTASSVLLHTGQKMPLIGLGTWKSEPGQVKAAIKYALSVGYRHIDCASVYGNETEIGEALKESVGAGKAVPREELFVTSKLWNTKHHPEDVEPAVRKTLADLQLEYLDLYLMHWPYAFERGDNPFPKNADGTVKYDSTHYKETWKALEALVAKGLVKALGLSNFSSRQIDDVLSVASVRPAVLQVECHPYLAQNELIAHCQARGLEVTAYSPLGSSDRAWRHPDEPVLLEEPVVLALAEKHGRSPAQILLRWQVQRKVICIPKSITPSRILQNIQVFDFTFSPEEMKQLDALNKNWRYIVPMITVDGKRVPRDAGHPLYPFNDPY

[2] = target: T2, Aldo-keto reductase family 1 member A1 (Rattus norvegicus) (UniProt P51635); assay: Percent inhibition of rat kidney Aldehyde reductase (ALR) at 1x10E-4 M
T2 sequence (whole entry): T1 sequence (P51635 whole entry)

Rattus norvegicus = species: Rattus norvegicus; assay: Ratio of IC50 value of rat kidney ALR to rat lens AR; assay type: tissue-based; conditions: Lens of camera-type eye
[3] = target: Aldo-keto reductase family 1 member B1 (Rattus norvegicus, UniProt P07943); assay: Inhibitory activity against rat lens aldose reductase(AR).
[4] = target: Aldo-keto reductase family 1 member B1 (Rattus norvegicus) (UniProt P07943); assay: Inhibitory activity against rat lens aldose reductase(AR) at the concentration of 1*10e-7 M

Row | Compound | IC50 [1] [µM] | inhibition [2] [%] | IC50 [3] [µM] | inhibition [4] [%] | Ratio (Rattus norvegicus)
1 | O=C(O)CN1CC(=O)N(Cc2nc3c(Cl)cccc3s2)C1=O | > 100 | 37 | 0.062 | – | > 1610
2 | O=C(O)CN1CC(=O)N(Cc2ccc(Cl)c([N+](=O)[O-])c2)C1=O | > 100 | 1.6 | 0.024 | – | > 4170
3 | O=C(O)CN1C(=O)N(Cc2cccc([N+](=O)[O-])c2)C(=O)C1O (configuration not stated) | > 100 | 11 | – | 44 | –
4 | O=C(O)Cn1ccc(=O)n(Cc2nc3c(Cl)cccc3s2)c1=O | > 100 | 39.3 | 0.011 | – | > 9090
5 | O=C(O)CN1CC(=O)N(Cc2cccc([N+](=O)[O-])c2)C1=O | > 100 | 3.8 | – | 38.2 | –
6 | O=C(O)CN1C(=O)CC(=O)N(Cc2cccc([N+](=O)[O-])c2)C1=O | > 100 | 33.5 | – | 1.5 | –
7 | O=C(O)CN1CC(=O)N(Cc2nc3cc(Cl)ccc3s2)C1=O | – | – | – | 47.5 | –
8 | O=C(O)CN1C(=O)C(=O)N(Cc2ccc(Cl)c([N+](=O)[O-])c2)C1=O | > 100 | 39.5 | 0.016 | – | > 6250
9 | O=C(O)Cn1ccc(=O)n(Cc2cccc([N+](=O)[O-])c2)c1=O | > 100 | 17.4 | 0.034 | – | > 2940
10 | O=C(O)CN1C(=O)C(=O)N(Cc2cccc([N+](=O)[O-])c2)C1=O | – | 37.3 | – | – | –

Second part, led by results:

Row | IC50 [1] [µM] | inhibition [2] [%] | IC50 [3] [µM] | inhibition [4] [%] | Compound | Ratio (Rattus norvegicus)
11 | > 100 | 32 | 0.0057 | – | O=C(O)Cn1ccc(=O)n(Cc2nc3cc(Cl)ccc3s2)c1=O | > 17500
12 | > 100 | 12.4 | – | 17.7 | C=C1N(CC(=O)O)C(=O)C(=O)N1Cc1cccc([N+](=O)[O-])c1 | –
13 | > 100 | 26.5 | 0.025 | – | O=C(O)Cn1ccc(=O)n(Cc2ccc(Cl)c([N+](=O)[O-])c2)c1=O | > 4000
14 | > 100 | – | – | 4.6 | O=C(O)CN1C(=O)CN(Cc2cccc([N+](=O)[O-])c2)C1=O | –
15 | > 100 | 19 | – | 5 | O=C(O)CN1C(=O)C(O)N(Cc2cccc([N+](=O)[O-])c2)C1=O (configuration not stated) | –
16 | 72 | – | 0.012 | – | O=C(O)CN1C(=O)C(=O)N(Cc2nc3c(Cl)cccc3s2)C1=O | 6000
17 | > 100 | 11.8 | – | 27.8 | O=C(O)Cn1c(=O)ccn(Cc2cccc([N+](=O)[O-])c2)c1=O | –
18 | 58 | – | 0.032 | – | C=C1C(=O)N(CC(=O)O)C(=O)N1Cc1cccc([N+](=O)[O-])c1 | 1810
19 | 28 | – | 0.025 | – | O=C(O)CN1C(=O)C(=O)N(Cc2cccc([N+](=O)[O-])c2)C1=S | 1120
20 | 58 | – | 0.015 | – | O=C(O)CN1C(=O)C(=O)N(Cc2nc3cc(Cl)ccc3s2)C1=O | 3870
